The text below walks through data of patent US20240109930A1, “TRIAZOLYL-METHYL SUBSTITUTED ALPHA-D-GALACTOPYRANOSIDE DERIVATIVES” (Idorsia Pharmaceuticals Ltd, priority 2021, published 2024).

pIC50: −log10 of the molar value.

Test [1] concerns the target human Gal-3 (hGal-3) (Homo sapiens (Human), UniProt P17931). Description: Competitive binding assay: biotinylated hGal-3 binding to microplate-adsorbed asialofetuin (ASF). To be noted: IC50 values from several measurements given as geomean. The gist of the method:
(§1)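 Biotinylated hGal-3 or hGal-1 (preferably cysteine-free Cys→Ser mutant), 300–1000 ng/mL, competes with compound for ASF-coated wells for 3 h at 4 °C. Bound lectin detected with streptavidin-peroxidase (80 ng/mL, 1 h, 4 °C) and ABTS by absorbance; IC50 reported as geomean of several runs.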

In test [2] the target is human Gal-1 (hGal-1) (Homo sapiens, UniProt P09382, C131S/C17S/C43S/C61S/C89S). Description: Competitive binding assay: biotinylated hGal-1 binding to microplate-adsorbed asialofetuin (ASF). Conditions: IC50 values from several measurements given as geomean. The method in brief: as §1

Chain of human Gal-3 (hGal-3) (P17931 whole entry): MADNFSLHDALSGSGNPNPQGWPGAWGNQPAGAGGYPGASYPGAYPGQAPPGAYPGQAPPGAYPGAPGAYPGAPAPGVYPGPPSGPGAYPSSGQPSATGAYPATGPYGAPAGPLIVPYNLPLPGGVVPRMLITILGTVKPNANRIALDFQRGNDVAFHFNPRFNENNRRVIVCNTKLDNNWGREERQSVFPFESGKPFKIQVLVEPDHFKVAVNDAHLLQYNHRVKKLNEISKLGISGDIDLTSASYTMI

Take `CO[C@@H]1[C@@H](n2cc(-c3ccc(Cl)c(F)c3F)nn2)[C@@H](O)[C@@H](CO)O[C@@H]1Cc1cn(C2(CO)CC(F)(F)C2)nn1` [Ex 2.1.18.]: the pIC50 (in general, the IC50 on a negative log10 scale, so that one unit is a factor of ten) in test [1] was 7.40; in test [2] it was 5.55.
As to `CO[C@@H]1[C@@H](n2cc(-c3ccc(Cl)c(F)c3F)nn2)[C@@H](O)[C@@H](CO)O[C@@H]1Cc1cn([C@]2(C)C[C@H](O)C2)nn1` [Ex 2.1.19.], the pIC50 is 7.40 in test [1] and 6.20 in test [2].
The like results for `CO[C@@H]1[C@@H](n2cc(-c3ccc(Cl)c(F)c3F)nn2)[C@@H](O)[C@@H](CO)O[C@@H]1Cc1cn(C2[C@H]3CCC[C@@H]23)nn1` (stereo partly drawn) [Ex 2.1.20.] were, in that order, 7.22 and 5.69.
The corresponding values for `COCC1(n2cc(C[C@H]3O[C@H](CO)[C@H](O)[C@H](n4cc(-c5ccc(Cl)c(F)c5F)nn4)[C@H]3OC)nn2)COC1` [Ex 2.1.21.] are 7.30 and 6.05.
The corresponding values for `CO[C@@H]1[C@@H](n2cc(-c3ccc(Cl)c(F)c3F)nn2)[C@@H](O)[C@@H](CO)O[C@@H]1Cc1cn(C2(CCO)COC2)nn1` [Ex 2.1.22.] are 7.30 and 6.17.
For `CO[C@@H]1[C@@H](n2cc(-c3ccc(Cl)c(F)c3F)nn2)[C@@H](O)[C@@H](CO)O[C@@H]1Cc1cn(C2(C)CC2)nn1` [Ex 2.1.23.], the pIC50 in test [1] was 7.70; in test [2] it was 5.96.
With `CO[C@@H]1[C@@H](n2cc(-c3ccc(Cl)c(F)c3F)nn2)[C@@H](O)[C@@H](CO)O[C@@H]1Cc1cn(C23CC(C(F)(F)F)(C2)C3)nn1` [Ex 2.1.24.], the negative logarithm of the IC50 (pIC50) was 7.10 in test [1] and 5.17 in test [2].
The corresponding values for `CO[C@@H]1[C@@H](n2cc(-c3ccc(Cl)c(F)c3F)nn2)[C@@H](O)[C@@H](CO)O[C@@H]1Cc1cn(C23CC(F)(C2)C3)nn1` [Ex 2.1.25.] are 7.30 and 5.71.
The corresponding values for `CO[C@@H]1[C@@H](n2cc(-c3ccc(Cl)c(F)c3F)nn2)[C@@H](O)[C@@H](CO)O[C@@H]1Cc1cn(C2CC3(CC3)C2)nn1` [Ex 2.1.26.] are 7.00 and 5.10.
The like results for `CO[C@@H]1[C@@H](n2cc(-c3ccc(Cl)c(F)c3F)nn2)[C@@H](O)[C@@H](CO)O[C@@H]1Cc1cn([C@]2(C)C[C@@H](O)C2)nn1` [Ex 2.1.27.] were, in that order, 7.52 and 6.15.
Consider `CO[C@@H]1[C@@H](n2cc(-c3ccc(Cl)c(F)c3F)nn2)[C@@H](O)[C@@H](CO)O[C@@H]1Cc1cn(C(C)(C)C(F)F)nn1` [Ex 2.1.28.], for which the values for the pIC50 in test [1] and in test [2] were 7.40 and 6.11, respectively.
With `CO[C@@H]1[C@@H](n2cc(-c3ccc(Cl)c(F)c3F)nn2)[C@@H](O)[C@@H](CO)O[C@@H]1Cc1cn(C23CC(OC)(C2)C3)nn1` [Ex 2.1.29.], the results for the pIC50 in test [1] and in test [2] were 7.22 and 5.68, respectively.
The like results for `CO[C@@H]1[C@@H](n2cc(-c3ccc(Cl)c(F)c3F)nn2)[C@@H](O)[C@@H](CO)O[C@@H]1Cc1cn(C2(CF)CCC2)nn1` [Ex 2.1.40.] were, in that order, 7.30 and 5.79.
The like results for `CO[C@@H]1[C@@H](n2cc(-c3ccc(Cl)c(F)c3F)nn2)[C@@H](O)[C@@H](CO)O[C@@H]1Cc1cn(C2CC(C(F)(F)F)C2)nn1` (stereo partly drawn) [Ex 2.1.41.] were, in that order, 6.89 and 5.04.
The like results for `CO[C@@H]1[C@@H](n2cc(-c3ccc(Cl)c(F)c3F)nn2)[C@@H](O)[C@@H](CO)O[C@@H]1Cc1cn(C2(C)CCOC2)nn1` (stereo partly drawn) [Ex 2.1.42.] were, in that order, 7.40 and 5.74.
As for `CO[C@@H]1[C@@H](n2cc(-c3ccc(Cl)c(F)c3F)nn2)[C@@H](O)[C@@H](CO)O[C@@H]1Cc1cn(C2(C(F)F)CCC2)nn1` [Ex 2.1.43.], the pIC50 is 7.70 in test [1] and 6.21 in test [2].
The corresponding values for `CO[C@@H]1[C@@H](n2cc(-c3ccc(Cl)c(F)c3F)nn2)[C@@H](O)[C@@H](CO)O[C@@H]1Cc1cn(C23COC(C2)C3)nn1` [Ex 2.1.44.] are 7.52 and 5.68.
The corresponding values for `CO[C@@H]1[C@@H](n2cc(-c3ccc(Cl)c(F)c3F)nn2)[C@@H](O)[C@@H](CO)O[C@@H]1Cc1cn(C(C)(C)CF)nn1` [Ex 2.1.45.] are 7.40 and 5.83.
The like results for `CO[C@@H]1[C@@H](n2cc(-c3ccc(Cl)c(F)c3F)nn2)[C@@H](O)[C@@H](CO)O[C@@H]1Cc1cn(C2(CF)CC2)nn1` [Ex 2.1.46.] were, in that order, 7.52 and 5.97.
With `CO[C@@H]1[C@@H](n2cc(-c3ccc(Cl)c(F)c3F)nn2)[C@@H](O)[C@@H](CO)O[C@@H]1Cc1cn([C@]2(C)C[C@H](F)C2)nn1` [Ex 2.1.47.B], the pIC50 in test [1] is 7.52; in test [2], 5.92.
Turning to `CCC(C)(C)n1cc(C[C@H]2O[C@H](CO)[C@H](O)[C@H](n3cc(-c4ccc(Cl)c(F)c4F)nn3)[C@H]2OC)nn1` [Ex 2.1.49., (2R,3R,4S,5R,6R)-4-(4-(4-Chloro-2,3-difluorophenyl)-1H-1,2,3-triazol-1-yl)-2-(hydroxymethyl)-5-methoxy-6-((1-(tert-pentyl)-1H-1,2,3-triazol-4-yl)methyl)tetrahydro-2H-pyran-3-ol], the negative-log IC50 (pIC50) in test [1] is 7.52; in test [2], 5.88.
With `CCC(C)(CC)n1cc(C[C@H]2O[C@H](CO)[C@H](O)[C@H](n3cc(-c4ccc(Cl)c(F)c4F)nn3)[C@H]2OC)nn1` [Ex 2.1.50.], the results for the pIC50 in test [1] and in test [2] were 7.15 and 5.80, respectively.
The like results for `CO[C@@H]1[C@@H](n2cc(-c3ccc(Cl)c(F)c3F)nn2)[C@@H](O)[C@@H](CO)O[C@@H]1Cc1cn(C2(C(F)F)CC2)nn1` [Ex 2.1.51., (2R,3R,4S,5R,6R)-4-(4-(4-chloro-2,3-difluorophenyl)-1H-1,2,3-triazol-1-yl)-6-((1-(1-(difluoromethyl)cyclopropyl)-1H-1,2,3-triazol-4-yl)methyl)-2-(hydroxymethyl)-5-methoxytetrahydro-2H-pyran-3-ol] were, in that order, 7.70 and 6.08.
The corresponding values for `CO[C@@H]1[C@@H](n2cc(-c3ccc(Cl)c(F)c3F)nn2)[C@@H](O)[C@@H](CO)O[C@@H]1Cc1cn(C2(CF)COC2)nn1` [Ex 2.1.52., (2R,3R,4S,5R,6R)-4-(4-(4-chloro-2,3-difluorophenyl)-1H-1,2,3-triazol-1-yl)-6-((1-(3-(fluoromethyl)oxetan-3-yl)-1H-1,2,3-triazol-4-yl)methyl)-2-(hydroxymethyl)-5-methoxytetrahydro-2H-pyran-3-ol [1-(1,2,3-tri-deoxy-2-methoxy-3-[4-(4-chloro-2,3-difluorophenyl)-1H-1,2,3-triazol-1-yl]-α-D-galacto-pyranose)-1-(1-(3-fluoromethyl-3-oxetanyl)-1H-triazol-4-yl)-methane]] are 7.70 and 6.19.
The like results for `CO[C@@H]1[C@@H](n2cc(-c3ccc(Cl)c(F)c3F)nn2)[C@@H](O)[C@@H](CO)O[C@@H]1Cc1cn(C2(C(F)F)COC2)nn1` [Ex 2.1.53., (2R,3R,4S,5R,6R)-4-(4-(4-chloro-2,3-difluorophenyl)-1H-1,2,3-triazol-1-yl)-6-((1-(3-(difluoromethyl)oxetan-3-yl)-1H-1,2,3-triazol-4-yl)methyl)-2-(hydroxymethyl)-5-methoxytetrahydro-2H-pyran-3-ol [1-(1,2,3-tri-deoxy-2-methoxy-3-[4-(4-chloro-2,3-difluorophenyl)-1H-1,2,3-triazol-1-yl]-α-D-galacto-pyranose)-1-(1-(3-difluoromethyl-3-oxetanyl)-1H-triazol-4-yl)-methane]] were, in that order, 7.70 and 6.38.
In the case of `CO[C@@H]1[C@@H](n2cc(-c3ccc(Cl)c(F)c3F)nn2)[C@@H](O)[C@@H](CO)O[C@@H]1Cc1cn(C2(C(F)(F)F)CC2)nn1` [Ex 2.1.54., (2R,3R,4S,5R,6R)-4-(4-(4-Chloro-2,3-difluorophenyl)-1H-1,2,3-triazol-1-yl)-2-(hydroxymethyl)-5-methoxy-6-((1-(1-(trifluoromethyl)cyclopropyl)-1H-1,2,3-triazol-4-yl)methyl)tetrahydro-2H-pyran-3-ol], the figures for the pIC50 in test [1] and in test [2] were 7.52 and 6.15, respectively.
With `CO[C@@H]1[C@@H](n2cc(-c3ccc(Cl)c(F)c3F)nn2)[C@@H](O)[C@@H](CO)O[C@@H]1Cc1cn(C2(C(F)(F)F)CCC2)nn1` [Ex 2.1.55.], the pIC50 in test [1] was 7.70; in test [2], 6.21.
The like results for `CO[C@@H]1[C@@H](n2cc(-c3ccc(Cl)c(F)c3F)nn2)[C@@H](O)[C@@H](CO)O[C@@H]1Cc1cn(C(C)(C)C(F)(F)F)nn1` [Ex 2.1.56.] were, in that order, 7.30 and 6.09.
The corresponding values for `CO[C@@H]1[C@@H](n2cc(-c3ccc(Cl)c(F)c3F)nn2)[C@@H](O)[C@@H](CO)O[C@@H]1Cc1cn(C2CC(C(F)(F)F)(C(F)(F)F)C2)nn1` [Ex 2.1.57.] are 6.30 and 4.55.
Turning to `CO[C@@H]1[C@@H](n2cc(-c3ccc(Cl)c(F)c3F)nn2)[C@@H](O)[C@@H](CO)O[C@@H]1Cc1cn(C2(C(F)(F)F)COC2)nn1` [Ex 2.1.58., (2R,3R,4S,5R,6R)-4-(4-(4-chloro-2,3-difluorophenyl)-1H-1,2,3-triazol-1-yl)-2-(hydroxymethyl)-5-methoxy-6-((1-(3-(trifluoromethyl)oxetan-3-yl)-1H-1,2,3-triazol-4-yl)methyl)tetrahydro-2H-pyran-3-ol [1-(1,2,3-tri-deoxy-2-methoxy-3-[4-(4-chloro-2,3-difluorophenyl)-1H-1,2,3-triazol-1-yl]-α-D-galacto-pyranose)-1-(1-(3-trifluoromethyl-3-oxetanyl)-1H-triazol-4-yl)-methane]], the pIC50 in test [1] was 7.70; in test [2] it was 6.33.
